Measurements: ChEMBL document CHEMBL5032521, “Design, synthesis and anti-tumor evaluation of 1,2,4-triazol-3-one derivatives and pyridazinone derivatives as novel CXCR2 antagonists” (Eur J Med Chem, 2021)
pIC50: −log10 of the molar value. Blank lines part the entries; values can stand above or below the molecule they belong to. Active and inactive are the calls of the source. The rule behind the calls is not given here.

Legend:
[1] = target: T1, C-X-C chemokine receptor type 2 (Homo sapiens) (UniProt P25025); test: Antagonist activity at CXCR2 (unknown origin) at 10 uM by calcium flux assay relative to control; type: functional
T1 sequence (whole entry): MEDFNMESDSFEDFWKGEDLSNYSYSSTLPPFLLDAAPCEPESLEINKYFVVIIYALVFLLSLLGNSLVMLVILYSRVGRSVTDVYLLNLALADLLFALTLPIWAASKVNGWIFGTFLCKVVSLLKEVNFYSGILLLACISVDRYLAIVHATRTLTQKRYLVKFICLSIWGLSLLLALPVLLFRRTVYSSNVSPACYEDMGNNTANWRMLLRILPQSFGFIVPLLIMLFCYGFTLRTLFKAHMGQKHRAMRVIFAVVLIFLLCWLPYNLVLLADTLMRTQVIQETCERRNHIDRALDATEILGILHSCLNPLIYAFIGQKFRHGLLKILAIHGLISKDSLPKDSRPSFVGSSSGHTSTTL

MDA-MB-231 [2] = test: Antimigratory activity against human MDA-MB-231 cells assessed as reduction in cell migration at 2 uM measured after 24 hrs by wound healing assay relative to control; type: functional; set-up: scale not given: the % may be the effect or the level left
MDA-MB-231 [3] = test: Antimigratory activity against human MDA-MB-231 cells assessed as reduction in cell migration at 2 uM measured after 24 hrs by crystal violet staining based transwell assay relative to control; type: functional; set-up: scale not given: the % may be the effect or the level left
HUVEC [4] = test: Anti-angiogenesis activity in HUVEC cells assessed as reduction in blood vessel area at 2 uM measured after 12 hrs by inverted microscopic analysis relative to control; type: functional, Homo sapiens; set-up: scale not given: the % may be the effect or the level left
MDA-MB-231 [5] = test: Synergistic antiproliferative activity against human MDA-MB-231 cells assessed as inhibition of cell growth at 10 uM incubated for 72 hrs in presence of Sorafenib by MTT assay; type: functional, cell-based; conditions: MDA-MB-231, 72 h
MDA-MB-231 [6] = test: Synergistic antiproliferative activity against human MDA-MB-231 cells assessed as inhibition of cell growth at 25 uM incubated for 72 hrs in presence of Sorafenib by MTT assay; type: functional, cell-based; conditions: MDA-MB-231, 72 h
MDA-MB-231 [7] = test: Antiproliferative activity against human MDA-MB-231 cells assessed as reduction in cell viability measured after 72 hrs by MTT assay; type: functional, cell-based; conditions: MDA-MB-231, 72 h
MDA-MB-231 [8] = test: Inhibition of PI3K signalling in human MDA-MB-231 cells assessed as decrease in PI3K phosphorylation at 5 to 10 uM measured after 24 hrs by Western blot assay; type: cell-based; conditions: dose 5-10 µM
MDA-MB-231 [9] = test: Inhibition of PI3K signalling in human MDA-MB-231 cells assessed as decrease in AKT phosphorylation at 5 to 10 uM measured after 24 hrs by Western blot assay; type: cell-based; conditions: dose 5-10 µM
MDA-MB-231 [10] = test: Inhibition of epithelial-mesenchymal transition in human MDA-MB-231 cells assessed as upregulation of E-cadherin expression at 10 uM measured after 24 hrs by Western blot assay; type: functional, cell-based
MDA-MB-231 [11] = test: Inhibition of epithelial-mesenchymal transition in human MDA-MB-231 cells assessed as downregulation of fibronectin expression at 10 uM measured after 24 hrs by Western blot assay; type: functional, cell-based
MDA-MB-231 [12] = test: Inhibition of epithelial-mesenchymal transition in human MDA-MB-231 cells assessed as downregulation of vimentin expression at 10 uM measured after 24 hrs by Western blot assay; type: functional, cell-based
MDA-MB-231 [13] = test: Inhibition of epithelial-mesenchymal transition in human MDA-MB-231 cells assessed as downregulation of beta-catenin expression at 10 uM measured after 24 hrs by Western blot assay; type: functional, cell-based
HUVEC [14] = test: Down-regulation of VEGF expression in HUVEC cells assessed as 10 uM measured after 24 hrs by Western blot assay; type: functional, cell-based; conditions: Homo sapiens
MDA-MB-231 [15] = test: Induction of ROS production in human MDA-MB-231 cells assessed as increase in mean fluorescence intensity at 10 uM measured after 24 hrs by DCFH-DA staining based inverted microscopic analysis; type: functional, cell-based
Caco-2 = test: Cytotoxicity against human Caco2 cells; type: functional, cell-based

inhibition ([1]; filed as antagonist): 69.4%
pIC50 (MDA-MB-231 [5]): 5.23
pIC50 (MDA-MB-231 [6]): 5.53
pIC50 (MDA-MB-231 [7]): < 4.60
SMILES: Cc1cc(=O)n(-c2ccc(C(F)(F)F)cc2)nc1C(=O)Nc1cccc(C(=O)N(C)C)c1O
Activity (MDA-MB-231 [2]): 52%
Activity (MDA-MB-231 [3]): 49.7%
Activity (HUVEC [4]): 59.2%
inhibition (MDA-MB-231 [8]): Active
inhibition (MDA-MB-231 [9]): Active
inhibition (MDA-MB-231 [10]): Active
inhibition (MDA-MB-231 [11]): Active
inhibition (MDA-MB-231 [12]): Active
inhibition (MDA-MB-231 [13]): Active
Activity (HUVEC [14]): Active
Activity (MDA-MB-231 [15]): Active

pIC50 (MDA-MB-231 [7]): 5.07
SMILES: CNC(=O)c1cc(Oc2ccc(NC(=O)Nc3ccc(Cl)c(C(F)(F)F)c3)cc2)ccn1 [SORAFENIB]

inhibition [1]: 26.6%
SMILES: CN(C)C(=O)c1cccc(NC(=O)c2nn(-c3ccc(Cl)cc3Cl)c(=O)n2C)c1O

inhibition [1]: 6.1%
SMILES: Cc1ccccc1-n1nc(C(=O)Nc2cccc(C(=O)N(C)C)c2O)c(C)cc1=O

inhibition [1]: 12.7%
SMILES: CN(C)C(=O)c1cccc(NC(=O)c2nn(-c3ccc(F)cc3)c(=O)n2C)c1O

inhibition ([1]; filed as antagonist): 43.8%
SMILES: Cc1ccccc1-n1nc(C(=O)Nc2cccc(C(=O)N(C)C)c2O)n(C)c1=O

inhibition ([1]; filed as antagonist): 43.8%
SMILES: Cc1cccc(-n2nc(C(=O)Nc3cccc(C(=O)N(C)C)c3O)n(C)c2=O)c1

inhibition [1]: 18.6%
SMILES: CN(C)C(=O)c1cccc(NC(=O)c2nn(-c3ccccc3)c(=O)n2C)c1O

inhibition [1]: -0.8%
SMILES: Cc1cc(=O)n(-c2ccc(F)cc2)nc1C(=O)Nc1cccc(C(=O)N(C)C)c1O

inhibition [1]: 32.3%
SMILES: CN(C)C(=O)c1cccc(NC(=O)c2nn(-c3ccc(Cl)c(Cl)c3)c(=O)n2C)c1O

inhibition [1]: 20.4%
SMILES: Cc1cc(=O)n(-c2ccc(C(C)(C)C)cc2)nc1C(=O)Nc1cccc(C(=O)N(C)C)c1O

SMILES: O=C(Nc1ccc([N+](=O)[O-])cc1O)Nc1ccccc1Br
Activity (MDA-MB-231 [2]): 52.3%
Activity (MDA-MB-231 [3]): 44%
Activity (HUVEC [4]): 55.2%
inhibition (MDA-MB-231 [10]): Active
inhibition (MDA-MB-231 [11]): Active
inhibition (MDA-MB-231 [12]): Active
inhibition (MDA-MB-231 [13]): Active
Activity (HUVEC [14]): inactive
Activity (MDA-MB-231 [15]): Active

inhibition [1]: 24.3%
SMILES: Cc1ccc(-n2nc(C(=O)Nc3cccc(C(=O)N(C)C)c3O)n(C)c2=O)cc1

inhibition [1]: 27.2%
SMILES: CN(C)C(=O)c1cccc(NC(=O)c2nn(-c3ccc(Cl)cc3)c(=O)n2C)c1O

inhibition [1]: 26.9%
SMILES: Cc1ccc(-n2nc(C(=O)Nc3cccc(C(=O)N(C)C)c3O)c(C)cc2=O)cc1

inhibition ([1]; filed as antagonist): 49.2%
SMILES: C#Cc1ccc(-n2nc(C(=O)Nc3cccc(C(=O)N(C)C)c3O)n(C)c2=O)cc1

inhibition [1]: 1.5%
SMILES: C#Cc1ccc(-n2nc(C(=O)Nc3cccc(C(=O)N(C)C)c3O)c(C)cc2=O)cc1

inhibition [1]: 11.2%
SMILES: Cc1cccc(-n2nc(C(=O)Nc3cccc(C(=O)N(C)C)c3O)c(C)cc2=O)c1

inhibition [1]: 10.9%
SMILES: Cc1cc(=O)n(-c2ccc(Cl)c(Cl)c2)nc1C(=O)Nc1cccc(C(=O)N(C)C)c1O

SMILES: CC[C@@H](Nc1c(Nc2cccc(C(=O)N(C)C)c2O)c(=O)c1=O)c1ccc(C)o1 [NAVARIXIN ANHYDROUS]
pIC50 (Caco-2): 4.73

inhibition [1]: -8.2%
SMILES: Cc1cc(=O)n(-c2ccc(Cl)cc2Cl)nc1C(=O)Nc1cccc(C(=O)N(C)C)c1O

inhibition [1]: 21.6%
SMILES: CN(C)C(=O)c1cccc(NC(=O)c2nn(-c3ccc(C(F)(F)F)cc3)c(=O)n2C)c1O

inhibition ([1]; filed as antagonist): 40.9%
SMILES: CN(C)C(=O)c1cccc(NC(=O)c2nn(-c3ccc(C(C)(C)C)cc3)c(=O)n2C)c1O

inhibition [1]: 34.6%
SMILES: COc1ccc(-n2nc(C(=O)Nc3cccc(C(=O)N(C)C)c3O)c(C)cc2=O)cc1

inhibition [1]: 3.2%
SMILES: Cc1cc(=O)n(-c2ccccc2)nc1C(=O)Nc1cccc(C(=O)N(C)C)c1O
